Converted amounts (≈) assume the structure as drawn.
Assays:
P388 = assay: Cytotoxicity against mouse P388 cells; format: functional, cell-based
A549 = assay: Cytotoxicity against human A549 cells; format: functional, cell-based

C=C1CCC[C@H]2[C@](C)(CC(=O)C3=C(O)C(OC)OC3=O)[C@@H](C)CC[C@]12C (some centres not stated) [DACTYLTRONIC ACID]
IC50 (P388): 10 µg/mL (≈ 27.6 µM)
IC50 (A549): 10 µg/mL (≈ 27.6 µM)
